Measured values as given in patent US20250026721A1, “COMPOUNDS AND METHODS FOR MODULATING RAS-PI3K” (Vividion Therapeutics, Inc., priority 2023, published 2025).

Experiments:
[1] = molecular target: T1, PIK3CA (Homo sapiens, UniProt P42336); test: In vitro ELISA target engagement assay for PIK3CA in Jurkat cellular lysate (competition with PIK3CA Biotin Probe); type: binding; details: 1 hour at rt, then 500 nM PIK3CA Biotin Probe, read-out: Elisa Target Engagement Assay (TE50)
T1 construct: endogenous in cells; host or cells: Jurkat cell lysate
Summary of the method: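 Competition format in Jurkat lysate: compound (serial dilutions, top 200 μM) for 1 h at rt, then 500 nM final biotinylated PIK3CA probe for 1 h at rt. Sandwich ELISA with capture antibody and Neutravidin-HRP luminescence read-out measured probe-labelled PIK3CA, giving TE50.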

[2] = molecular target: T2, PIK3CA_C242 (Homo sapiens, UniProt P42336); test: Proteomic TE50 (IA-DTB / TMT mass spectrometry) in Jurkat cell lysate; type: binding; details: 1 hour at rt, 7-point dose response
T2 construct: endogenous in cells; host or cells: Jurkat cell lysate
Summary of the method: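 Cysteine engagement was read by targeted TMT MS3 of the IA-DTB-labelled, streptavidin-enriched C242 tryptic peptide. Beforehand, Jurkat lysate was exposed to a 7-point 1:5 compound series for 1 h at rt, then to 200 μM IA-DTB for 1 h. Reporter S/N curves gave TE50.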

T1 sequence (P42336 whole entry): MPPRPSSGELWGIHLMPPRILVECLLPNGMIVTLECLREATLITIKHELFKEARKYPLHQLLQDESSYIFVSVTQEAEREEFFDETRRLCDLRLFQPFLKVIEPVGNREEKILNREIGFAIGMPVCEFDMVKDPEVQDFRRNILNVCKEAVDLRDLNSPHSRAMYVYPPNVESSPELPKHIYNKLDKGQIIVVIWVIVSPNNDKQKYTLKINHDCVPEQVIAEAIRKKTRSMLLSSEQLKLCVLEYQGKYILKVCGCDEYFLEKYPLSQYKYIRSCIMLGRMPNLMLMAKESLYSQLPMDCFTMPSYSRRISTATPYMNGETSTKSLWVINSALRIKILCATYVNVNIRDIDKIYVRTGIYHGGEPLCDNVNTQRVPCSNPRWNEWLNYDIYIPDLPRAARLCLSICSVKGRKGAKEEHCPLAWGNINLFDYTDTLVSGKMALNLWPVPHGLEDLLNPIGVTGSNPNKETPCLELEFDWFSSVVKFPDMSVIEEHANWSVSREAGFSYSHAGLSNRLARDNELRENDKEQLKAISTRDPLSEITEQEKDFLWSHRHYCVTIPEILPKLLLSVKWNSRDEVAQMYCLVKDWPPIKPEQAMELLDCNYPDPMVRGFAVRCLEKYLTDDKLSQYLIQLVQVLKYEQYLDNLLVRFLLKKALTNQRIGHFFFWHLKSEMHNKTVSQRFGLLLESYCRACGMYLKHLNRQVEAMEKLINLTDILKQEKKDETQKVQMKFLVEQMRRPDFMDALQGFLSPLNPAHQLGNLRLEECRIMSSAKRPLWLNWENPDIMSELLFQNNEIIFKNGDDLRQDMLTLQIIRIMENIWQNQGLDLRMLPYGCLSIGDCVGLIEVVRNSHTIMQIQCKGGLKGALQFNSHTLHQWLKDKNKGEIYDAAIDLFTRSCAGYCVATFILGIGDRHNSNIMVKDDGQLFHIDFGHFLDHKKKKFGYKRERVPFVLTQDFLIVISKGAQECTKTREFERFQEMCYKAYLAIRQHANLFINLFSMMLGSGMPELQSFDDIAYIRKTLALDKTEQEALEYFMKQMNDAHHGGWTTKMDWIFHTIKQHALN
T1 sequence (P27986 whole entry partner): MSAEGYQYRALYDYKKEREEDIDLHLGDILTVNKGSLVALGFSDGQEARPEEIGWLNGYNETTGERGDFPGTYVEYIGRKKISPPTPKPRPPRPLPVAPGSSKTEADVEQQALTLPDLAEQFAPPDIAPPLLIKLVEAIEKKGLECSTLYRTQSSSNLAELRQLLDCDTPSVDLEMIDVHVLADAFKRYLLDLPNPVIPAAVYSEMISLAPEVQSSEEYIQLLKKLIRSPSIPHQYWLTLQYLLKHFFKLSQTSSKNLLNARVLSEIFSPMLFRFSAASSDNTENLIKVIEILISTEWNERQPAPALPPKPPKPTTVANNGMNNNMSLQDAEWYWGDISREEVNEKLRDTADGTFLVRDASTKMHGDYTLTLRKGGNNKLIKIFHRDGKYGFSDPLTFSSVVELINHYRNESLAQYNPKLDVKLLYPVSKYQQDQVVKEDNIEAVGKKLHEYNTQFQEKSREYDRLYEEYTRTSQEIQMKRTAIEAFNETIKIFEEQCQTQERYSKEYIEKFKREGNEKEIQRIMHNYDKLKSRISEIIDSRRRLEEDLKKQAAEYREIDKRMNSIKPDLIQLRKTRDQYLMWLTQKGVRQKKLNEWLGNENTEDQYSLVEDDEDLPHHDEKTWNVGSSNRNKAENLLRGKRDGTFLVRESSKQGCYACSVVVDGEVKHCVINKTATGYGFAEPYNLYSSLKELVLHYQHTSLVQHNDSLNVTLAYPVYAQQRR
T2 sequence (P42336 whole entry): as the sequence (P42336 whole entry) above
T2 sequence (P27986 whole entry partner): as the sequence (P27986 whole entry partner) above

Compound	IC50 [1]	IC50 [2]
C=Cc1ccc(S(=O)(=O)N2CCC(F)(C(=O)N[C@H](C)/C=C\S(C)(=O)=O)CC2)c(-c2ccccc2Cl)c1 [Compound 107, (R,Z)-1-((2′-chloro-5-vinyl-[1,1′-biphenyl]-2-yl)sulfonyl)-4-fluoro-N-(4-(methylsulfonyl)but-3-en-2-yl)piperidine-4-carboxamide]	200 nM	320 nM
C[C@H](/C=C\S(C)(=O)=O)NC(=O)C1(F)CCN(S(=O)(=O)c2ccc(N(C)C)cc2-c2ccccc2Cl)CC1 [Compound 92, (R,Z)-1-((2′-chloro-5-(dimethylamino)-[1,1′-biphenyl]-2-yl)sulfonyl)-4-fluoro-N-(4-(methylsulfonyl)but-3-en-2-yl)piperidine-4-carboxamide]	130 nM	139 nM
COc1ccc(S(=O)(=O)N2CCC(F)(C(=O)N[C@H](C)/C=C\S(C)(=O)=O)CC2)c(-c2ccccc2Cl)c1Cl [Compound 32, 1-((2′,6-dichloro-5-methoxy-[1,1′-biphenyl]-2-yl)sulfonyl)-4-fluoro-N-((R,Z)-4-(methylsulfonyl)but-3-en-2-yl)piperidine-4-carboxamide]	930 nM	820 nM
COc1cc(-c2ccccc2Cl)c(S(=O)(=O)N2CCC(F)(C(=O)N[C@H](C)/C=C\S(C)(=O)=O)CC2)cn1 [Compound 186, 1-[[4-(2-chlorophenyl)-6-methoxy-3-pyridyl]sulfonyl]-4-fluoro-N—[(Z,1R)-1-methyl-3-methylsulfonyl-allyl]piperidine-4-carboxamide]	493 nM	226 nM
C[C@H](/C=C\S(C)(=O)=O)NC(=O)C1(F)CCN(S(=O)(=O)c2ccc(C3COC3)cc2-c2ccccc2Cl)CC1 [Compound 132, (R,Z)-1-((2′-chloro-5-(oxetan-3-yl)-[1,1′-biphenyl]-2-yl)sulfonyl)-4-fluoro-N-(4-(methylsulfonyl)but-3-en-2-yl)piperidine-4-carboxamide]	524 nM	468 nM
C[C@H](/C=C\S(C)(=O)=O)NC(=O)C1(F)CCN(S(=O)(=O)c2ccc(OC(F)(F)F)cc2-c2ccccc2Cl)CC1 [Compound 34, (R,Z)-1-((2′-chloro-5-(trifluoromethoxy)-[1,1′-biphenyl]-2-yl)sulfonyl)-4-fluoro-N-(4-(methylsulfonyl)but-3-en-2-yl)piperidine-4-carboxamide]	550 nM	700 nM
C[C@H](/C=C\S(C)(=O)=O)NC(=O)C1(F)CCN(S(=O)(=O)c2ccc(F)cc2-c2ccccc2Cl)CC1 [Compound 31, (R,Z)-1-((2′-chloro-5-fluoro-[1,1′-biphenyl]-2-yl)sulfonyl)-4-fluoro-N-(4-(methylsulfonyl)but-3-en-2-yl)piperidine-4-carboxamide]	760 nM	620 nM
CCOc1cccc(-c2cc(Cl)ccc2S(=O)(=O)N2CCC(F)(C(=O)N[C@@H](C)/C=C\S(C)(=O)=O)CC2)c1 [Compound 10, (S,Z)-1-((5-chloro-3′-ethoxy-[1,1′-biphenyl]-2-yl)sulfonyl)-4-fluoro-N-(4-(methylsulfonyl)but-3-en-2-yl)piperidine-4-carboxamide]	320 nM	275 nM
C=C(C)c1ccc(S(=O)(=O)N2CCC(F)(C(=O)N[C@H](C)/C=C\S(C)(=O)=O)CC2)c(-c2ccccc2Cl)c1 [Compound 109, (R,Z)-1-((2′-chloro-5-(prop-1-en-2-yl)-[1,1′-biphenyl]-2-yl)sulfonyl)-4-fluoro-N-(4-(methylsulfonyl)but-3-en-2-yl)piperidine-4-carboxamide]	360 nM	280 nM
C[C@@H](/C=C\S(C)(=O)=O)NC(=O)C1(F)CCN(S(=O)(=O)c2ccc(Cl)cc2-c2cccc(OCc3ccccn3)c2)CC1 [Compound 269, (S,Z)-1-((5-chloro-3′-(pyridin-2-ylmethoxy)-[1,1′-biphenyl]-2-yl)sulfonyl)-4-fluoro-N-(4-(methylsulfonyl)but-3-en-2-yl)piperidine-4-carboxamide]	90 nM	63 nM
CCc1ccc(S(=O)(=O)N2CCC(F)(C(=O)N[C@H](C)/C=C\S(C)(=O)=O)CC2)c(-c2ccccc2Cl)c1 [Compound 111, (R,Z)-1-((2′-chloro-5-ethyl-[1,1′-biphenyl]-2-yl)sulfonyl)-4-fluoro-N-(4-(methylsulfonyl)but-3-en-2-yl)piperidine-4-carboxamide]	320 nM	210 nM
COc1cccc(-c2cc(N(C)C)ccc2S(=O)(=O)N2CCC(F)(C(=O)N[C@@H](C)/C=C\S(C)(=O)=O)CC2)c1Cl [Compound 90, (S,Z)-1-((2′-chloro-5-(dimethylamino)-3′-methoxy-[1,1′-biphenyl]-2-yl)sulfonyl)-4-fluoro-N-(4-(methylsulfonyl)but-3-en-2-yl)piperidine-4-carboxamide]	250 nM	330 nM

The remaining compounds from weak to strong by IC50 [1], led by results:

IC50 [1]	IC50 [2]	Compound
1000 nM	1230 nM	COc1ccc(S(=O)(=O)N2CCC(F)(C(=O)N[C@H](C)/C=C\S(C)(=O)=O)CC2)c(-c2ccccc2)c1 [Compound 21, (R,Z)-4-fluoro-1-((5-methoxy-[1,1′-biphenyl]-2-yl)sulfonyl)-N-(4-(methylsulfonyl)but-3-en-2-yl)piperidine-4-carboxamide]
970 nM	1090 nM	COc1ccc(S(=O)(=O)N2CCC(F)(C(=O)N[C@@H](C)/C=C\S(C)(=O)=O)CC2)c(-c2ccccc2OC)c1 [Compound 219, (S,Z)-1-((2′,5-dimethoxy-[1,1′-biphenyl]-2-yl)sulfonyl)-4-fluoro-N-(4-(methylsulfonyl)but-3-en-2-yl)piperidine-4-carboxamide]
830 nM	363 nM	C=C(C)c1ccc(S(=O)(=O)N2CCC(F)(C(=O)N[C@H](C)/C=C\S(C)(=O)=O)CC2)c(-c2ccccc2C)c1 [Compound 110, (R,Z)-4-fluoro-1-((2′-methyl-5-(prop-1-en-2-yl)-[1,1′-biphenyl]-2-yl)sulfonyl)-N-(4-(methylsulfonyl)but-3-en-2-yl)piperidine-4-carboxamide]
780 nM	430 nM	CCCCCOc1cccc(-c2cc(Cl)ccc2S(=O)(=O)N2CCC(F)(C(=O)N[C@@H](C)/C=C\S(C)(=O)=O)CC2)c1 [Compound 262, (S,Z)-1-((5-chloro-3′-(pentyloxy)-[1,1′-biphenyl]-2-yl)sulfonyl)-4-fluoro-N-(4-(methylsulfonyl)but-3-en-2-yl)piperidine-4-carboxamide]
610 nM	680 nM	CC(C)c1ccc(S(=O)(=O)N2CCC(F)(C(=O)N[C@H](C)/C=C\S(C)(=O)=O)CC2)c(-c2ccccc2Cl)c1 [Compound 114, (R,Z)-1-((2′-chloro-5-isopropyl-[1,1′-biphenyl]-2-yl)sulfonyl)-4-fluoro-N-(4-(methylsulfonyl)but-3-en-2-yl)piperidine-4-carboxamide]
320 nM	150 nM	C[C@H](/C=C\S(C)(=O)=O)NC(=O)C1(F)CCN(S(=O)(=O)c2ccc(N3CCC3)cc2-c2ccccc2Cl)CC1 [Compound 124, (R,Z)-1-((5-(azetidin-1-yl)-2′-chloro-[1,1′-biphenyl]-2-yl)sulfonyl)-4-fluoro-N-(4-(methylsulfonyl)but-3-en-2-yl)piperidine-4-carboxamide]
95 nM	70 nM	N#C/C=C\CNC(=O)C1(F)CCN(S(=O)(=O)c2ccc(Br)cc2-c2ccccc2Cl)CC1 [Compound 70, (Z)-1-((5-bromo-2′-chloro-[1,1′-biphenyl]-2-yl)sulfonyl)-N-(3-cyanoallyl)-4-fluoropiperidine-4-carboxamide]
